Laboratory results taken from PubChem BioAssay AID256 (DTP/NCI, 2004).
“And” between values parts separate entries of the source, which are not always exact repeats. Equal values may be shown once. Toxic doses and inconclusive results are not listed.

Test system: CD2F1 mice, L1210 leukemia ip, survival T/C
Experiment: NCI In Vivo Anticancer Drug Screen. Data for tumor model L1210 Leukemia (intraperitoneal) in CD2F1 (CDF1) mice
Details: higher = longer survival
How it was run: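 Implant tumor; dose compound or vehicle; measure endpoint in both groups; report treated divided by control.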

CC1CCC(NC(=O)N(CCCl)N=O)CC1 (centres undefined)
T/C (endpoint: mean survival time, dose: 0.5 mg/kg/injection, schedule: Q01DX009 (ip), vehicle: saline + alcohol): 96 % of control
T/C (endpoint: mean survival time, dose: 1.0 mg/kg/injection, schedule: Q01DX009 (ip), vehicle: saline + alcohol): 109 % of control
T/C (endpoint: mean survival time, dose: 2.0 mg/kg/injection, schedule: Q01DX009 (ip), vehicle: saline + alcohol): 109 % of control
T/C (endpoint: mean survival time, dose: 3.12 mg/kg/injection, schedule: Q01DX001 (ip), vehicle: other): 105 % of control and 110 % of control
T/C (endpoint: mean survival time, dose: 3.13 mg/kg/injection, schedule: Q01DX001 (ip), vehicle: saline with Tween-80): 103 % of control
T/C (endpoint: mean survival time, dose: 4.0 mg/kg/injection, schedule: Q01DX001 (ip), vehicle: other): 107 % of control
T/C (endpoint: mean survival time, dose: 4.0 mg/kg/injection, schedule: Q01DX001 (ip), vehicle: saline + alcohol): 104 % of control
T/C (endpoint: mean survival time, dose: 4.0 mg/kg/injection, schedule: Q01DX009 (ip), vehicle: saline + alcohol): 151 % of control and 185 % of control
T/C (endpoint: mean survival time, dose: 5.0 mg/kg/injection, schedule: Q04DX003 (ip), vehicle: other): 192 % of control
T/C (endpoint: mean survival time, dose: 6.25 mg/kg/injection, schedule: Q01DX001 (ip), vehicle: saline + alcohol): 98 % of control
T/C (endpoint: mean survival time, dose: 6.25 mg/kg/injection, schedule: Q01DX001 (ip), vehicle: saline with Tween-80): 114 % of control
T/C (endpoint: mean survival time, dose: 8.0 mg/kg/injection, schedule: Q01DX009 (ip), vehicle: saline + alcohol): 175 % of control and 229 % of control
T/C (endpoint: mean survival time, dose: 8.0 mg/kg/injection, schedule: Q08DX002 (ip), vehicle: saline + alcohol): 206 % of control
T/C (endpoint: mean survival time, dose: 10.0 mg/kg/injection, schedule: Q04DX003 (ip), vehicle: other): 371 % of control
T/C (endpoint: mean survival time, dose: 12.5 mg/kg/injection, schedule: Q01DX001 (ip), vehicle: distilled water + Tween-80): 340 % of control
T/C (endpoint: mean survival time, dose: 12.5 mg/kg/injection, schedule: Q01DX001 (ip), vehicle: saline + alcohol): 104 % of control
T/C (endpoint: mean survival time, dose: 16.0 mg/kg/injection, schedule: Q01DX001 (ip), vehicle: other): 283 % of control
T/C (endpoint: mean survival time, dose: 16.0 mg/kg/injection, schedule: Q01DX001 (ip), vehicle: saline + alcohol): 120 % of control
T/C (endpoint: mean survival time, dose: 16.0 mg/kg/injection, schedule: Q01DX009 (ip), vehicle: saline + alcohol): 207 % of control
T/C (endpoint: mean survival time, dose: 16.0 mg/kg/injection, schedule: Q08DX002 (ip), vehicle: saline + alcohol): 289 % of control
T/C (endpoint: mean survival time, dose: 20.0 mg/kg/injection, schedule: Q04DX003 (ip), vehicle: other): 392 % of control
T/C (endpoint: mean survival time, dose: 24.0 mg/kg/injection, schedule: Q01DX009 (ip), vehicle: saline + alcohol): 107 % of control
T/C (endpoint: mean survival time, dose: 24.0 mg/kg/injection, schedule: Q08DX002 (ip), vehicle: saline + alcohol): 550 % of control
T/C (endpoint: mean survival time, dose: 25.0 mg/kg/injection, schedule: Q01DX001 (ip), vehicle: distilled water + Tween-80): 406 % of control
T/C (endpoint: mean survival time, dose: 25.0 mg/kg/injection, schedule: Q01DX001 (ip), vehicle: saline + alcohol): 95 % of control
T/C (endpoint: mean survival time, dose: 25.0 mg/kg/injection, schedule: Q01DX001 (ip), vehicle: saline with Tween-80): 393 % of control
T/C (endpoint: mean survival time, dose: 27.0 mg/kg/injection, schedule: Q01DX001 (ip), vehicle: saline with Tween-80): 813 % of control
T/C (endpoint: mean survival time, dose: 32.0 mg/kg/injection, schedule: Q01DX001 (ip), vehicle: other): 357 % of control
T/C (endpoint: mean survival time, dose: 32.0 mg/kg/injection, schedule: Q01DX001 (ip), vehicle: saline + alcohol): 451 % of control
T/C (endpoint: mean survival time, dose: 32.0 mg/kg/injection, schedule: Q01DX009 (ip), vehicle: saline + alcohol): 256 % of control and 103 % of control
T/C (endpoint: mean survival time, dose: 40.0 mg/kg/injection, schedule: Q01DX001 (ip), vehicle: saline with Tween-80): 555 % of control
T/C (endpoint: mean survival time, dose: 48.0 mg/kg/injection, schedule: Q01DX009 (ip), vehicle: saline + alcohol): 96 % of control
T/C (endpoint: mean survival time, dose: 50.0 mg/kg/injection, schedule: Q01DX001 (ip), vehicle: saline + alcohol): 158 % of control
T/C (endpoint: mean survival time, dose: 50.0 mg/kg/injection, schedule: Q01DX001 (ip), vehicle: saline with Tween-80): 213 % of control and 473 % of control
T/C (endpoint: mean survival time, dose: 64.0 mg/kg/injection, schedule: Q01DX001 (ip), vehicle: other): 204 % of control
T/C (endpoint: mean survival time, dose: 64.0 mg/kg/injection, schedule: Q01DX009 (ip), vehicle: saline + alcohol): 86 % of control
T/C (endpoint: median survival time, dose: 3.12 mg/kg/injection, schedule: Q01DX001 (ip), vehicle: other): 121 % of control and 110 % of control
T/C (endpoint: median survival time, dose: 3.12 mg/kg/injection, schedule: Q01DX001 (ip), vehicle: saline): 98 % of control and 101 % of control
T/C (endpoint: median survival time, dose: 6.25 mg/kg/injection, schedule: Q01DX001 (ip), vehicle: other): 158 % of control
T/C (endpoint: median survival time, dose: 6.25 mg/kg/injection, schedule: Q01DX001 (ip), vehicle: saline): 98 % of control and 103 % of control
T/C (endpoint: median survival time, dose: 9.0 mg/kg/injection, schedule: Q04DX002 (ip), vehicle: saline + Tween-80 + alcohol): 180 % of control
T/C (endpoint: median survival time, dose: 12.5 mg/kg/injection, schedule: Q01DX001 (ip), vehicle: other): 159 % of control and 297 % of control
T/C (endpoint: median survival time, dose: 12.5 mg/kg/injection, schedule: Q01DX001 (ip), vehicle: saline): 103 % of control
T/C (endpoint: median survival time, dose: 14.4 mg/kg/injection, schedule: Q01DX001 (ip), vehicle: saline + alcohol): 718 % of control
T/C (endpoint: median survival time, dose: 14.4 mg/kg/injection, schedule: Q01DX001 (ip), vehicle: saline with Tween-80): 121 % of control
T/C (endpoint: median survival time, dose: 14.4 mg/kg/injection, schedule: Q04DX002 (ip), vehicle: saline + alcohol): 622 % of control
T/C (endpoint: median survival time, dose: 15.0 mg/kg/injection, schedule: Q04DX002 (ip), vehicle: saline + Tween-80 + alcohol): 351 % of control
T/C (endpoint: median survival time, dose: 24.0 mg/kg/injection, schedule: Q01DX001 (ip), vehicle: other): 581 % of control
T/C (endpoint: median survival time, dose: 24.0 mg/kg/injection, schedule: Q01DX001 (ip), vehicle: saline + alcohol): 718 % of control
T/C (endpoint: median survival time, dose: 24.0 mg/kg/injection, schedule: Q04DX002 (ip), vehicle: saline + alcohol): 623 % of control
T/C (endpoint: median survival time, dose: 25.0 mg/kg/injection, schedule: Q01DX001 (ip), vehicle: other): 297 % of control and 340 % of control
T/C (endpoint: median survival time, dose: 25.0 mg/kg/injection, schedule: Q04DX002 (ip), vehicle: saline + Tween-80 + alcohol): 244 % of control
T/C (endpoint: median survival time, dose: 36.0 mg/kg/injection, schedule: Q01DX001 (ip), vehicle: other): 580 % of control
T/C (endpoint: median survival time, dose: 40.0 mg/kg/injection, schedule: Q01DX001 (ip), vehicle: saline + alcohol): 720 % of control
T/C (endpoint: median survival time, dose: 40.0 mg/kg/injection, schedule: Q01DX001 (ip), vehicle: saline with Tween-80): 157 % of control
T/C (endpoint: median survival time, dose: 40.0 mg/kg/injection, schedule: Q01DX001 (oral), vehicle: saline with Tween-80): 393 % of control and 590 % of control and 983 % of control
T/C (endpoint: median survival time, dose: 40.0 mg/kg/injection, schedule: Q04DX002 (ip), vehicle: saline + alcohol): 286 % of control
T/C (endpoint: median survival time, dose: 42.0 mg/kg/injection, schedule: Q04DX002 (ip), vehicle: saline + Tween-80 + alcohol): 170 % of control
T/C (endpoint: median survival time, dose: 50.0 mg/kg/injection, schedule: Q01DX001 (ip), vehicle: other): 158 % of control and 193 % of control
T/C (endpoint: median survival time, dose: 50.0 mg/kg/injection, schedule: Q01DX001 (oral), vehicle: saline with Tween-80): 193 % of control and 983 % of control (2×)
T/C (endpoint: median survival time, dose: 60.0 mg/kg/injection, schedule: Q01DX001 (ip), vehicle: other): 119 % of control
T/C (endpoint: median survival time, dose: 60.0 mg/kg/injection, schedule: Q01DX001 (oral), vehicle: saline with Tween-80): 185 % of control and 983 % of control (2×)
T/C (endpoint: median survival time, dose: 66.7 mg/kg/injection, schedule: Q01DX001 (ip), vehicle: saline + alcohol): 328 % of control
T/C (endpoint: median survival time, dose: 66.7 mg/kg/injection, schedule: Q01DX001 (ip), vehicle: saline with Tween-80): 463 % of control
T/C (endpoint: median survival time, dose: 100.0 mg/kg/injection, schedule: Q01DX001 (ip), vehicle: other): 116 % of control

COC1CC2C[CH]([Hg][Cl])C1C2 (centres undefined)
T/C (endpoint: mean survival time, dose: 0.75 mg/kg/injection, schedule: Q01DX009 (ip), vehicle: saline): 106 % of control
T/C (endpoint: mean survival time, dose: 1.5 mg/kg/injection, schedule: Q01DX009 (ip), vehicle: saline): 106 % of control
T/C (endpoint: mean survival time, dose: 3.0 mg/kg/injection, schedule: Q01DX009 (ip), vehicle: saline): 103 % of control
T/C (endpoint: mean survival time, dose: 3.13 mg/kg/injection, schedule: Q01DX009 (ip), vehicle: saline with Tween-80): 97 % of control
T/C (endpoint: mean survival time, dose: 6.25 mg/kg/injection, schedule: Q01DX009 (ip), vehicle: saline with Tween-80): 103 % of control

CCSC(C(O)C(O)C(O)C(O)CO)n1cnc2c(SC)ncnc21 (centres undefined)
T/C (endpoint: mean survival time, dose: 25.0 mg/kg/injection, schedule: Q01DX005 (ip), vehicle: water): 89 % of control
T/C (endpoint: mean survival time, dose: 50.0 mg/kg/injection, schedule: Q01DX005 (ip), vehicle: water): 94 % of control
T/C (endpoint: mean survival time, dose: 100.0 mg/kg/injection, schedule: Q01DX005 (ip), vehicle: water): 94 % of control
T/C (endpoint: mean survival time, dose: 200.0 mg/kg/injection, schedule: Q01DX005 (ip), vehicle: water): 94 % of control

CCCCCCCCCCCCCCCCn1cnc2c(Cl)ncnc21
T/C (endpoint: mean survival time, dose: 12.5 mg/kg/injection, schedule: Q01DX005 (ip), vehicle: other): 94 % of control
T/C (endpoint: mean survival time, dose: 25.0 mg/kg/injection, schedule: Q01DX005 (ip), vehicle: other): 91 % of control
T/C (endpoint: mean survival time, dose: 50.0 mg/kg/injection, schedule: Q01DX005 (ip), vehicle: other): 91 % of control
T/C (endpoint: mean survival time, dose: 100.0 mg/kg/injection, schedule: Q01DX005 (ip), vehicle: other): 92 % of control
T/C (endpoint: mean survival time, dose: 200.0 mg/kg/injection, schedule: Q01DX005 (ip), vehicle: other): 89 % of control
